Assay results as given in patent publication US20210387941A1, “Diphenyl-like Compound, Intermediate Thereof, Preparation Method Therefor, Pharmaceutical Composition Thereof And Uses Thereof” (SHANGHAI MAXINOVEL PHARMACEUTICALS CO., LTD., priority 2018, published 2021).
pIC50: −log10 of the molar value.

Biological target: T1, PD-1/PD-L1 (Homo sapiens, UniProt Q9NZQ7)
T1 construct: tag1 or tag2 (identity not disclosed); purchased CisBio 64CUS000C-1
Assay: Homogeneous Time-Resolved Fluorescence (HTRF) binding test
Conditions: CisBio kit #64CUS000C-1, read-out: IC50 values of compounds binding to PD-1/PD-L1
Description: The binding ability of the compounds of the present disclosure to PD-1/PD-L1 was detected using Homogeneous Time-Resolved Fluorescence (HTRF) binding test.
The purchased kit (CisBio, #64CUS000C-1) contained the reagents needed for experiments, such as PD-1, PD-L1, anti-tag1-Eu, Anti-tag2-XL665, Dilute Buffer and Detection Buffer.
1. The compound was prepared with 100% DMSO to 10 concentrations with a concentration gradient of 3 times.
2. A solution of the compound in DMSO was added into Dilute Buffer, mixed uniformly, and then transferred into 96-well plate.
3. PD-L1 was diluted with Dilute Buffer, and then added into the above 96-well plate.
4. PD-1 was diluted with Dilute Buffer, and then added into the above 96-well plate and incubated at room temperature for 30 minutes.
5. A part of anti-tag1-Eu and a part of Anti-tag2-XL665 were added into Detection Buffer, mixed uniformly and then transferred into the above 96-well plate.
6. The mixed solution in this 96-well plate was incubated at room temperature for 1 hour to 24 hours.
7. HTRF values were read with Envision.

T1 sequence (Q9NZQ7 19-238 limits assumed): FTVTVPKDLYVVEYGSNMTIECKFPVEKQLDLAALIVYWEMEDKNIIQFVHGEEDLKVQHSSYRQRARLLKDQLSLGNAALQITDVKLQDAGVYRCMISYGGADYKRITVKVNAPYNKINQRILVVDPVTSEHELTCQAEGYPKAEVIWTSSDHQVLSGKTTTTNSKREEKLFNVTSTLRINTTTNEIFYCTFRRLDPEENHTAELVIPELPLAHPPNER

Compound: Cc1c(/C=C/c2cc(CNCCO)ccc2C(F)(F)F)cccc1-c1cccc(-c2cc(CNCCO)ccc2F)c1C [Compound 10, 2-({[(3-(E)-2-{3-[3-(5-{[(2-hydroxyethyl)amino]methyl}-2-fluoro-phenyl)-2-methylphenyl]-2-methylphenyl}ethenyl)-4-(trifluoromethyl)phenyl]methyl}amino)-1-ethanol]
- pIC50: 7.85

Compound: Cc1c(/C=C/c2cc(CNCCO)ccc2C(F)(F)F)cccc1-c1cccc(/C=C/c2cc(CNCCO)ccc2C(F)(F)F)c1C [Compound 1, 2-[({3-[(E)-2-(3-{3-[(E)-2-(5-{[(2-hydroxyethyl)amino]methyl}-2-(trifluoromethyl)phenyl)ethenyl]-2-methylphenyl}-2-methylphenyl)ethenyl]-4-(trifluoromethyl)phenyl}methyl)amino]-1-ethanol]
- pIC50: 8.21

Compound: Cc1c(/C=C/c2cc(CN[C@@](C)(CO)C(=O)O)ccc2C(F)(F)F)cccc1-c1cccc(-c2cc(CN[C@@](C)(CO)C(=O)O)ccc2F)c1C [Compound 11, (2S)-2-[({3-[(E)-2-(3-{3-[5-({[(1S)-1-carboxyl-2-hydroxy-1-methylethyl]amino}methyl)-2-fluorophenyl]-2-methylphenyl}-2-methylphenyl)ethenyl]-4-(trifluoromethyl)phenyl}methyl)amino]-3-hydroxy-2-methylpropanoic acid]
- pIC50: 8.06

Compound: Cc1c(/C=C/c2cc(CN[C@@](C)(CO)C(=O)O)ccc2C(F)(F)F)cccc1-c1cccc(/C=C/c2cc(CNCCO)ccc2C(F)(F)F)c1Cl [Compound 6, (2S)-3-hydroxy-2-[({3-[(E)-2-(3-{3-[(E)-2-(5-{[(2-hydroxyethyl)amino]methyl}-2-(trifluoromethyl)phenyl)ethenyl]-2-chlorophenyl}-2-methylphenyl)ethenyl]-4-(trifluoromethyl)phenyl}methyl)amino]-2-methylpropanoic Acid]
- pIC50: 8.55

Compound: COCCOc1ccc(F)c(/C=C/c2cccc(-c3cccc(/C=C/c4cc(CN[C@@](C)(CO)C(=O)O)ccc4C(F)(F)F)c3C)c2C)c1 [Compound 8, (2S)-3-hydroxy-2-[({3-[(E)-2-[3-(3-(E)-{2-[2-fluoro-5-(2-methoxyethoxy)phenyl]ethenyl}-2-methylphenyl)-2-methylphenyl]ethenyl]-4-(trifluoromethyl)phenyl}methyl)amino]-2-methylpropanoic Acid]
- pIC50: 6.29

Compound: Cc1c(/C=C/c2cc(CNCCO)ccc2C(F)(F)F)cccc1-c1cccc(-c2cccc(CNCCO)c2)c1C [Compound 9, 2-({[(3-(E)-2-{3-[3-(3-{[(2-hydroxyethyl)amino]methyl}phenyl)-2-methylphenyl]-2-methylphenyl}ethenyl)-4-(trifluoromethyl)phenyl]methyl}amino)-1-ethanol]
- pIC50: 8.12

Compound: COCCNCc1ccc(C(F)(F)F)c(/C=C/c2cccc(-c3cccc(/C=C/c4cc(CNCCO)ccc4C(F)(F)F)c3C)c2Cl)c1 [Compound 4, 2-[({3-[(E)-2-(3-{3-[(E)-2-(5-{[(2-methoxyethyl)amino]methyl}-2-(trifluoromethyl)phenyl)ethenyl]-2-chlorophenyl}-2-methylphenyl)ethenyl]-4-(trifluoromethyl)phenyl}methyl)amino]-1-ethanol]
- pIC50: 8.37

Compound: COCCNCc1ccc(C(F)(F)F)c(/C=C/c2cccc(-c3cccc(/C=C/c4cc(CN[C@@](C)(CO)C(=O)O)ccc4C(F)(F)F)c3C)c2Cl)c1 [Compound 5, (2S)-3-hydroxy-2-[({3-[(E)-2-(3-{3-[(E)-2-(5-{[(2-methoxyethyl)amino]methyl}-2-(trifluoromethyl)phenyl)ethenyl]-2-chlorophenyl}-2-methylphenyl)ethenyl]-4-(trifluoromethyl)phenyl}methyl)amino]-2-methylpropanoic Acid]
- pIC50: 8.64

Compound: Cc1c(/C=C/c2cc(CNCCO)ccc2C(F)(F)F)cccc1-c1cccc(/C=C/c2cc(CNCCO)ccc2C(F)(F)F)c1CF [Compound 12, 2-[({3-[(E)-2-(3-{3-[(E)-2-(5-{[(2-hydroxyethyl)amino]methyl}-2-(trifluoromethyl)phenyl)ethenyl]-2-(fluoromethyl)phenyl}-2-methylphenyl)ethenyl]-4-(trifluoromethyl)phenyl}methyl)amino]-1-ethanol]
- pIC50: 8.33

Compound: Cc1c(/C=C/c2cc(CN[C@@](C)(CO)C(=O)O)ccc2C(F)(F)F)cccc1-c1cccc(/C=C/c2cc(CN[C@@](C)(CO)C(=O)O)ccc2C(F)(F)F)c1C [Compound 3, (2S)-2-[({3-[(E)-2-(3-{3-[(E)-2-[5-({[(1S)-1-carboxyl-2-hydroxy-1-methylethyl]amino}methyl)-2-(trifluoromethyl)phenyl]ethenyl]-2-methylphenyl}-2-methylphenyl)ethenyl]-4-(trifluoromethyl)phenyl}methyl)amino]-3-hydroxy-2-methylpropanoic Acid]
- pIC50: 8.49

Compound: Cc1c(/C=C/c2cc(CNCCO)ccc2C(F)(F)F)cccc1-c1cccc(/C=C/c2cc(CNCCO)ccc2C(F)(F)F)c1Cl [Compound 7, 2-[({3-[(E)-2-(3-{3-[(E)-2-(5-{[(2-hydroxyethyl)amino]methyl}-2-(trifluoromethyl)phenyl)ethenyl]-2-chlorophenyl}-2-methylphenyl)ethenyl]-4-(trifluoromethyl)phenyl}methyl)amino]-1-ethanol]
- pIC50: 8.59

Compound: Cc1c(/C=C/c2cc(CNCCO)ccc2C(F)(F)F)cccc1-c1cccc(/C=C/c2cc(CN[C@@](C)(CO)C(=O)O)ccc2C(F)(F)F)c1C [Compound 2, (2S)-3-hydroxy-2-[({3-[(E)-2-(3-{3-[(E)-2-(5-{[(2-hydroxyethyl)amino]methyl}-2-(trifluoromethyl)phenyl)ethenyl]-2-methylphenyl}-2-methylphenyl)ethenyl]-4-(trifluoromethyl)phenyl}methyl)amino]-2-methylpropanoic Acid]
- pIC50: 8.36
